In paper PMC8359946, “Expanding the Substrate Scope of Nitrating Cytochrome P450 TxtE by Active Site Engineering of a Reductase Fusion” (Chembiochem, 2021):

Columns and labels:
[1] = biological target: T1, TxtE (His6-TxtE-BM3R fusion) (Streptomyces scabiei, UniProt C9ZDC6, R59C); test: UV-Vis difference spectrum (type II); LC-MS nitration assay with purified enzyme; format: binding
T1 construct: His6-TxtE-BM3R(R59C)

[2] = biological target: T2, TxtE (His6-TxtE-BM3R fusion) (Streptomyces scabiei, UniProt C9ZDC6); test: UV-Vis difference spectroscopy titration; purified-enzyme nitration assay; format: binding
T2 construct: His6-TxtE-BM3R fusion with the full length heme-reductase linker (27 aa) from CYP102A1

| SMILES | UV-Vis difference spectrum (type II); LC-MS nitration assay with purified enzyme [1] | Kd [2] [µM] |
| --- | --- | --- |
| NCCc1c[nH]c2ccccc12 [compound 1, tryptamine] | a similar spectrum is observed for binding of tryptamine to His6‐TxtE‐BMR3(R59C) | – |
| N[C@@H](Cc1c[nH]c2ccccc12)C(=O)O [L-tryptophan] | – | 84 ± 2 |
